Here are results for five compounds from ChEMBL document CHEMBL4616708, “Antitumor Potential of the Isoflavonoids (+)- and (-)-2,3,9-Trimethoxypterocarpan: Mechanism-of-Action Studies” (ACS Med Chem Lett, 2020).

One may read the IC50 as the concentration needed to halve the response being measured.

Calls of active or inactive are those of the source. No cut-off for these calls is given here.

One series concerns HL-60. Briefly: Cytotoxicity against human HL60 cells assessed as reduction in cell viability incubated for 72 hrs by MTT assay. It is filed as functional, cell-based. Conditions: HL-60, 72 h.
A further series deals with SF-295. The series is described as follows: Cytotoxicity against human SF295 cells assessed as reduction in cell viability incubated for 72 hrs by MTT assay. The format is functional, cell-based. Conditions: SF-295, 72 h. For orientation: Tetrazolium assays rely on reduction of a dye to a coloured formazan, in cell work by metabolically active cells.
The test system of series [1] is OVCAR-8. Briefly: Induction of apoptosis in human OVCAR8 cells assessed as reduction in cell viability at 0.6 uM incubated for 48 hrs by acridine orange and ethidium bromide dye based fluorescence microscopy analysis. It is filed as functional.
Series [2] deals with OVCAR-8. Briefly: Induction of apoptosis in human OVCAR8 cells assessed as increase in apoptotic cells at 0.6 uM incubated for 48 hrs by acridine orange and ethidium bromide dye based fluorescence microscopy analysis. The format is functional, cell-based.
Series [3] relates to OVCAR-8. The series is described as follows: Cytotoxicity against human OVCAR8 cells assessed as reduction in cell viability incubated for 72 hrs by MTT assay. It is filed as functional, cell-based. The settings on record: OVCAR-8, 72 h.
The subject of another series is HCT-116. The series is described as follows: Cytotoxicity against human HCT116 cells assessed as reduction in cell viability incubated for 72 hrs by MTT assay. It is filed as functional, cell-based. Conditions: HCT-116, 72 h.
The subject of series [4] is OVCAR-8. Briefly: Induction of apoptosis in human OVCAR8 cells assessed as reduction in cell viability incubated for 48 hrs by acridine orange and ethidium bromide dye based fluorescence microscopy analysis. It is filed as functional.
In series [5] the test system is Lytechinus variegatus. The series is described as follows: Antimitotic activity against sea urchin eggs assessed as inhibition of egg development at first cleavage. It is filed as functional, organism-based.
Series [6] deals with OVCAR-8. Briefly: Cell cycle arrest in human OVCAR8 cells assessed as accumulation at S phase at 5 uM incubated for 24 hrs by propidium iodide staining based flow cytometry (reference value: 7.1 +/- 0.86%). It is filed as functional. On the technique in general: A flow cytometer gives signals particle by particle.
The test system of series [7] is OVCAR-8. The series is described as follows: Cytotoxicity against human OVCAR8 cells assessed as reduction in cell viability measured upto 98 hrs by xcCELLigence RTCA analysis. The format is functional, cell-based.
The test system of series [8] is OVCAR-8. The series is described as follows: Cell cycle arrest in human OVCAR8 cells assessed as accumulation at G2/M phase at 5 uM incubated for 24 hrs by propidium iodide staining based flow cytometry (reference value: 25.78 +/- 0.71%). It is filed as functional.
The subject of series [9] is Lytechinus variegatus. The series is described as follows: Antimitotic activity against sea urchin eggs assessed as inhibition of development at second cleavage. The format is functional, organism-based.
The subject of series [10] is Lytechinus variegatus. The series is described as follows: Antimitotic activity against sea urchin eggs assessed as inhibition of egg development at blastulation stage. The format is functional, organism-based.
Series [11] concerns OVCAR-8. The series is described as follows: Cell cycle arrest in human OVCAR8 cells assessed as accumulation at S phase at 2.5 uM in presence of PTX incubated for 24 hrs by propidium iodide staining based flow cytometry (reference value: 7.1 +/- 0.86%). It is filed as functional.
The subject of series [12] is OVCAR-8. The series is described as follows: Cell cycle arrest in human OVCAR8 cells assessed as accumulation at G0/G1 phase at 5 uM incubated for 24 hrs by propidium iodide staining based flow cytometry (reference value: 67.06 +/- 1.42%). The format is functional.
In series [13] the test system is OVCAR-8. The series is described as follows: Cell cycle arrest in human OVCAR8 cells assessed as accumulation at G0/G1 phase at 2.5 uM incubated for 24 hrs by propidium iodide staining based flow cytometry (reference value: 67.06 +/- 1.42%). The format is functional.
Series [14] in a line: Cytotoxicity against human PBMC assessed as cell viability at 10 ug/ml incubated for 72 hrs by trypan blue dye based assay. The settings on record: read-out: Activity.
For series [15], the system named is OVCAR-8. The series is described as follows: Cell cycle arrest in human OVCAR8 cells assessed as accumulation at G2/M phase at 2.5 uM in presence of PTX incubated for 24 hrs by propidium iodide staining based flow cytometry (reference value: 25.78 +/- 0.71%). It is filed as functional.
Series [16] has as its system OVCAR-8. Briefly: Induction of apoptosis in human OVCAR8 cells assessed as increase in apoptotic cells incubated for 48 hrs by acridine orange and ethidium bromide dye based fluorescence microscopy analysis. It is filed as functional, cell-based.
For the next series, the system named is MCF7. Briefly: Cell cycle arrest in human MCF7 cells assessed as increase in accumulation at G2/M phase at 8 uM incubated for 24 hrs by propidium iodide staining based flow cytometry relative to control. It is filed as functional.
Series [17] deals with OVCAR-8. Briefly: Cell cycle arrest in human OVCAR8 cells assessed as accumulation at G2/M phase at 2.5 uM incubated for 24 hrs by propidium iodide staining based flow cytometry (reference value: 25.78 +/- 0.71%). It is filed as functional.
The test system of series [18] is OVCAR-8. Briefly: Cell cycle arrest in human OVCAR8 cells assessed as accumulation at G0/G1 phase at 2.5 uM in presence of PTX incubated for 24 hrs by propidium iodide staining based flow cytometry (reference value: 67.06 +/- 1.42%). The format is functional.
Series [19] has as its system OVCAR-8. Briefly: Cell cycle arrest in human OVCAR8 cells assessed as accumulation at G0/G1 phase at 10 uM incubated for 24 hrs by propidium iodide staining based flow cytometry (reference value: 67.06 +/- 1.42%). It is filed as functional.
Series [20] has as its system OVCAR-8. Briefly: Cell cycle arrest in human OVCAR8 cells assessed as accumulation at S phase at 2.5 uM incubated for 24 hrs by propidium iodide staining based flow cytometry (reference value: 7.1 +/- 0.86%). It is filed as functional.
Series [21] has as its system OVCAR-8. The series is described as follows: Induction of apoptosis in human OVCAR8 cells assessed as chromatin condensation at 20 to 40 uM incubated for 48 hrs by hematoxylin and eosin staining based […] analysis. It is filed as functional, cell-based.
Series [22] relates to OVCAR-8. The series is described as follows: Cell cycle arrest in human OVCAR8 cells assessed as accumulation at G2/M phase at 10 uM incubated for 24 hrs by propidium iodide staining based flow cytometry (reference value: 25.78 +/- 0.71%). The format is functional.
The subject of series [23] is OVCAR-8. The series is described as follows: Cell cycle arrest in human OVCAR8 cells assessed as accumulation at S phase at 10 uM incubated for 24 hrs by propidium iodide staining based flow cytometry (reference value: 7.1 +/- 0.86%). It is filed as functional.
Series [24] concerns OVCAR-8. Briefly: Cytotoxicity against human OVCAR8 cells assessed as reduction in cell viability at 0.05 uM measured upto 98 hrs by xcCELLigence RTCA analysis. It is filed as functional, cell-based.
Series [25] deals with OVCAR-8. Briefly: Cell cycle arrest in human OVCAR8 cells assessed as accumulation at G0/G1 phase at 0.05 uM incubated for 24 hrs by propidium iodide staining based flow cytometry (reference value: 67.06 +/- 1.42%). It is filed as functional.
Series [26] relates to OVCAR-8. The series is described as follows: Induction of apoptosis in human OVCAR8 cells assessed as chromatin condensation at 0.03 uM incubated for 48 hrs by hematoxylin and eosin staining based […] analysis. It is filed as functional, cell-based.
For series [27], the system named is OVCAR-8. The series is described as follows: Induction of apoptosis in human OVCAR8 cells assessed as reduction in cell volume at 0.03 uM incubated for 48 hrs by hematoxylin and eosin staining based […] analysis. It is filed as functional.
For series [28], the system named is OVCAR-8. Briefly: Induction of apoptosis in human OVCAR8 cells assessed as increase in apoptotic cells at 0.03 uM incubated for 48 hrs by acridine orange and ethidium bromide dye based fluorescence microscopy analysis. It is filed as functional, cell-based.
In series [29] the test system is OVCAR-8. The series is described as follows: Cell cycle arrest in human OVCAR8 cells assessed as accumulation at G2/M phase at 0.05 uM incubated for 24 hrs by propidium iodide staining based flow cytometry (reference value: 25.78 +/- 0.71%). It is filed as functional.
Series [30] deals with OVCAR-8. The series is described as follows: Induction of apoptosis in human OVCAR8 cells assessed as nuclear fragmentation at 0.03 uM incubated for 48 hrs by hematoxylin and eosin staining based […] analysis. The format is functional, cell-based.
Series [31] concerns OVCAR-8. Briefly: Induction of apoptosis in human OVCAR8 cells assessed as reduction in cell viability at 0.03 uM incubated for 48 hrs by acridine orange and ethidium bromide dye based fluorescence microscopy analysis. The format is functional.
Series [32] deals with OVCAR-8. Briefly: Cell cycle arrest in human OVCAR8 cells assessed as accumulation at S phase at 0.05 uM incubated for 24 hrs by propidium iodide staining based flow cytometry (reference value: 7.1 +/- 0.86%). It is filed as functional.
For series [33], the system named is OVCAR-8. Briefly: Cytotoxicity against human OVCAR8 cells assessed as reduction in cell viability at 1 to 4 uM measured upto 98 hrs by xcCELLigence RTCA analysis. It is filed as functional, cell-based.

Take `COc1cccc2c1C(=O)c1c(O)c3c(c(O)c1C2=O)C[C@@](O)(C(=O)CO)C[C@@H]3O[C@H]1C[C@H](N)[C@H](O)[C@H](C)O1` [DOXORUBICIN]: the IC50 in the series with HL-60 is 40 nM; with SF-295, 80 nM. Moreover, the result in the series on OVCAR-8 [1] and in the series with OVCAR-8 [2] was Active.

As to `COc1ccc2c(c1)O[C@H]1c3cc(OC)c(OC)cc3OC[C@@H]21`, the 50% inhibitory concentration (IC50) in the series on OVCAR-8 [3] worked out at 82800 nM; in the series on HL-60, 82800 nM; with SF-295 it was 32800 nM; in the series with HCT-116, 38500 nM.

For the compound `COc1ccc2c(c1)O[C@@H]1c3cc(OC)c(OC)cc3OC[C@H]21`, the IC50 in the series with OVCAR-8 [3] is 1790 nM; with Lytechinus variegatus [5], 7.94 nM; in the series on HL-60 it was 200 nM; with Lytechinus variegatus [9], 12.3 nM; in the series with Lytechinus variegatus [10] it was 10.7 nM; in the series on SF-295 it was 3610 nM. The half-maximal inhibitory concentration (IC50) with HCT-116 was found to be 2420 nM. Also, the Activity result is “Dose-dependent effect” in the series on OVCAR-8 [4]; 8.76% in the series with OVCAR-8 [6]; “Dose-dependent effect” with OVCAR-8 [7]; 75.24% in the series on OVCAR-8 [8]; 10.39% in the series on OVCAR-8 [11]; 15.83% with OVCAR-8 [12]. Moreover, the Activity with OVCAR-8 [13] was 58.16%; in the series with OVCAR-8 [15], 78.62%; in the series on OVCAR-8 [16] it was “Dose-dependent effect”; in the series with MCF7, 32%; in the series on OVCAR-8 [17] it was 32.71%; in the series with OVCAR-8 [18] it was 10.98%. Also, the Activity in the series with OVCAR-8 [19] is listed as 10.84%; with OVCAR-8 [20], 9.1%; in the series with OVCAR-8 [22], 79.13%; in the series on OVCAR-8 [23] it was 9.92%. Moreover, the viability at 72 h, 10 ug/ml in series [14] came to 81%. Also, the result in the series on OVCAR-8 [21] was Active.

Regarding `CC(=O)O[C@H]1C(=O)[C@@]2(C)[C@H]([C@H](OC(=O)c3ccccc3)[C@]3(O)C[C@H](OC(=O)[C@H](O)[C@@H](NC(=O)c4ccccc4)c4ccccc4)C(C)=C1C3(C)C)[C@]1(OC(C)=O)CO[C@@H]1C[C@@H]2O` [PACLITAXEL], the result in the series with OVCAR-8 [24], with OVCAR-8 [26], in the series on OVCAR-8 [27], in the series with OVCAR-8 [28], in the series on OVCAR-8 [30] and in the series on OVCAR-8 [31] was Active. The Activity is given as 34.28% in the series with OVCAR-8 [25], 49.97% with OVCAR-8 [29] and 15.72% in the series with OVCAR-8 [32].

In the case of `COc1ccc2c(c1)OC1c3cc(OC)c(OC)cc3OCC21` (racemic), the concentration for half-maximal inhibition (IC50) is 5930 nM in the series on OVCAR-8 [3], 760 nM in the series on HL-60, 14000 nM in the series on SF-295 and 11400 nM in the series on HCT-116. Also, the Activity was found to be 10.02% in the series on OVCAR-8 [6]; 37.16% in the series with OVCAR-8 [8]; 52.61% in the series with OVCAR-8 [12]; 46.72% in the series with OVCAR-8 [19]; 42.06% with OVCAR-8 [22]; 10.93% in the series on OVCAR-8 [23]. The result in the series on OVCAR-8 [33] was inactive.
